For test [1], the system named is various cancer and non-cancerous cell lines. Put plainly: 24 hour IC50 across various cancer and non-cancerous cell lines. The test is classed as cell-based. The note with it: various cancer and non-cancerous cell lines (Table 1, FIG. 4D). The procedure:
MTS Assay for Suspension Cells.
Serial dilutions of compound in 100% DMSO were added in triplicate (2 μL to each well) to empty wells of a 96-well plate. Suspension cells (HL-60, U-937, SKW 6.4, Jurkat W T, Jurkat CASP8^−/−, Jurkat FADD^−/−, Jurkat Bcl-2) cells in RPMI 1640 media were added to 96-well plates (198 μL containing 4×10^4 cells) and the cells incubated for 24 hours.
Sulforhodamine B Assay for Adherent Cells.
Serial dilutions of compound in 100% DMSO were added in triplicate (2 μL to each well) to empty wells of a 96-well plate. Adherent cells (3T3, Hs888Lu, MCF-7, HeLa, WT-MEF, 4T1, B16-F10, SK-MEL-5, MIA PaCa2, BT-549, MDA-MB-436, 143B, HOS, H460, H1993) cells were added to each well (5×10^3 cells in 198 μL of RPMI 1640, DMEM or EMEM media). The plates were incubated for 24 hours. The media was removed from the plate and ice-cold trichloroacetic acid (100 μL of 10% w/v trichloroacetic acid) was added to the plates which were then incubated at 4° C. overnight to fix the cells. […] The bound dye was released by the addition of unbuffered Tris-base (200 μL of 10 mM solution) and after a 30 min incubation at room temperature the absorbance at 510 nm was measured (Molecular Devices SpectraMax Plus 384 plate reader). The mean IC50 values and standard deviations were determined from three independent experiments.

The subject of test [2] is cancer cell lines (HL-60, SK-MEL-5, U-937). The test can be described thus: Initial screens against cancer cell lines. The test is classed as cell-based, Human.

Molecules are shown by their SMILES.

By IC50 is commonly meant the concentration needed to halve the response being measured. A low value points to greater potency. `O=CC1(C2(C=O)c3ccccc3-c3ccccc32)c2ccccc2-c2ccccc21` [Raptinal, [9,9′]bifluorenyl-9,9′-dicarbaldehyde]: the IC50 in test [1] lay in the range of 700 to 3400 nM; in test [2] (Homo sapiens, HL-60, SK-MEL-5, U-937, 24 hour assays), 150 to 700 nM. Further, in test [2] (cancer cells treated 1 hour, extensive washing to remove compound, read at 24-hour mark), the “cell death after short treatment and washout” value was “significant cell death”.
